Experimental data taken from ChEMBL document CHEMBL1131727, “Synthesis and biological evaluation of alpha-mannosidase inhibitory activity of three deoxy derivatives of mannostatin A” (Bioorg Med Chem Lett, 1999).

Assay: Compound was tested for the inhibitory activity against alpha-mannosidase

Row | Compound | IC50 [µM]
1 | CS[C@H]1[C@H](O)[C@H](O)C[C@@H]1N | > 100
2 | OCC1NC(O)C(O)C(O)C1O (stereo not given) | 42
3 | CS[C@@H]1[C@@H](N)[C@@H](O)C[C@H]1O | 31

The next compounds have a lower IC50 than those just listed; values first:

Row | IC50 [µM] | Compound
4 | 28 | CS[C@H]1C[C@H](O)[C@H](O)[C@@H]1N
5 | 0.24 | CS[C@@H]1[C@@H](N)[C@@H](O)[C@@H](O)[C@H]1O [MANNOSTATIN A]
